Test results from patent US11105794B2, “In vitro nephrotoxicity screening assay” (Hoffmann-La Roche Inc., priority 2016, dated 2021).
l = locked nucleic acid (LNA); d = 2'-deoxy (DNA)

Experiments:
PTEC-TERT1 cells [1] = experiment: EGF assay, supernatant of PTEC-TERT1 cells; settings: for Toxicity grade: from EGF, assay window saline vs toxic reference compound 4-1
Procedure: Prior to treatment with oligonucleotides the PTEC-TERT1 were seeded into collagen I-coated 96-well plates (Corning, 356407) at a density of 40 000 and 20 000 cells/well respectively in PTEC medium and grown until confluence.
(§4) Oligonucleotides were dissolved in PBS and added to the cell culture at the given concentration, such as 10, 30 or 100 μM. The total volume of each well was 100 μl. PBS served as vehicle control.
(§5) When extra cellular markers, like EGF and KIM-1, were analyzed following the oligonucleotide treatment the medium was collected and stored at −20° C. until further analysis. […] The collected medium was stored at −20° C.
For analysis of human EGF, cell supernatants were thawed on ice, diluted 1:2 and 1:10 in sample dilution buffer (BioRad catalog # M60-009RDPD) and analyzed by Luminex®-based ELISA using human EGF beads (Bio-Plex Pro™ Human Cancer Biomarker Panel 2 EGF Set#171BC603M), or followed by analysis using the Bio-Plex® 200 Systems (BioRad) according to the manufacturer's instructions. Data are reported as mean concentrations and standard deviations of triplicate wells.

[2] = system: Primary human hepatocytes; experiment: EGF assay, culture media of primary human hepatocytes; format: cell-based; settings: 10 ng/ml EGF in medium;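 further: values as percent of saline vehicle control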
Procedure: Cryopreserved human hepatocytes were suspended in William's Medium E (WME) without phenol red (Sigma W-1878) supplemented with 10% fetal calf serum, penicillin (100 U/ml), streptomycin (0.1 mg/ml) at a density of approx. 1×10^6 cells/ml and seeded into collagen-coated 96-well plates (Becton Dickinson AG, Allschwil, Switzerland) at a density of 0.4×10^5 cells/well. Cells were pre-cultured for 3 to 4 h allowing for attachment to cell culture plates before start of treatment with oligonucleotides.
Before oligonucleotide treatment the seeding medium was replaced by 90 μl of serum free WME.
The total volume of each well was 100 μl. PBS served as vehicle control.
Human primary hepatocytes were cultivated as described in the “Materials and methods” section with addition of 10 ng/ml of EGF to the medium. At confluence the cells were treated with oligonucleotide as described in the “Materials and methods” section, in concentrations of 10 or 100 μM.
The medium was obtained at day 3, and the EGF level was measured according to the assay described in the “Materials and methods” section.

A549 cells [3] = experiment: EGF assay, A549 cells transfected with oligonucleotide; format: cell-based, human; settings: A549, 48 hours after transfection;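 further: values as percent of saline control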
Procedure: (§1) A549 cells (ATCC CCL-185) were cultivated according to the manufacturer's instructions in A549 medium [F-12K Nut Mix (Gibco, 21127-022), 1% penicillin/streptomycin (Gibco: 15140-122), 10% FBS (Gibco 16000-044)].
(§2) Prior to treatment with oligonucleotides the A549 cells were seeded in 96 well plates at 3′000 cells per well in A549 regular medium and grown until 60% confluence. […]
(§3) A549 were cultivated as described in the “Materials and methods” section. At after at 50-60% confluence the oligonucleotides were transfected into the cells using 0.5 μl Lipofectamin (Invitrogen, 11668-019) in 25 μl OptiMEM® (GIBCO 31985062) and 1 ng or 10 ng oligonucleotide in the same volume OptiMEM. The cells were incubated over night at 37° C. The medium was changed using A459 regular medium+10 ng/ml EGF. 48 hours after transfection the medium was collected for EGF measurements and the cells were harvested for ATP measurements.

A549 cells [4] = experiment: Intracellular ATP assay, A549 cells transfected with oligonucleotide; format: cell-based, human; settings: A549, 48 hours after transfection;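 further: ATP as percent of saline control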
Procedure: as §1, §2
Each sample was tested in triplicate.
as §3

PTEC-TERT1 cells [5] = experiment: Morphological changes of PTEC-TERT1 cells upon oligonucleotide treatment; format: cell-based, human; settings: 100 μM oligonucleotide, 7 days, bright field microscopy, vs saline
Procedure: PTEC-TERT1 cells were cultures as described in the “Materials and methods” section. To mimic the physiological exposure of renal tubules to circulating naked oligonucleotide (i.e. without assistance of delivery technology, herein termed gymnosis or gymnotic delivery), confluent monolayers of PTEC-TERT1 cells were exposed to an aqueous solution of 100 μM oligonucleotide. The medium was replaced every three days including 100 μM fresh oligonucleotide in the fresh medium.
After 7 days of treatment the morphological alterations in the treated cell cultures were investigated under bright field microscopy.

[6] = system: Human primary proximal tubule epithelial cells (PTEC); experiment: EGF assay, supernatant of primary PTEC cells
Procedure: Prior to treatment with oligonucleotides the primary PTEC cells were seeded into collagen I-coated 96-well plates (Corning, 356407) at a density of 40 000 and 20 000 cells/well respectively in PTEC medium and grown until confluence.
as §4, §5
For analysis of human EGF, cell supernatants were thawed on ice, diluted 1:2 and 1:10 in sample dilution buffer (BioRad catalog # M60-009RDPD) and analyzed by Luminex®-based ELISA using human EGF beads (Bio-Plex Pro™ Human Cancer Biomarker Panel 2 EGF Set#171BC603M), or followed by analysis using the Bio-Plex® 200 Systems (BioRad) according to the manufacturer's instructions. Data are reported as mean concentrations and standard deviations of triplicate wells. An increase of EGF levels above 200% was considered as predictive for nephrotoxicity.

PCSK9 mRNA = experiment: Target knock down (PCSK9 mRNA levels) in PTEC-TERT1 cells; format: cell-based, human; settings: normalized to PPIB
Procedure: For assessment of the target knock down (PCSK9 mRNA levels) total mRNA was extracted from the cells adding 100 μl of 1× RNA lysis mixture (QuantiGene® Sample Processing Kit, QS0101) directly into the wells according to the manufacturer's instructions. RNA lysis mixtures were kept at −80° C. until analysis. For gene expression analysis, 20 μl of lysates were mixed with an mRNA-capture magnetic beads sets (Panomics QuantiGene® Plex Set catalog #12697), incubated overnight, processed for branched DNA amplification and analyzed according to the manufacturer's instructions (Panomics QuantiGene® Plex Assay kit, QP1015). The PPIB probe was used as housekeeping gene for normalization. Average Fluoresence Intensity (FI) and standard deviation of 3 biological replicates were calculated and normalized on vehicle control. The results are shown in table 11, and represent the average of three identical treatments.

[7] = system: Wistar Han Crl:WI(Han) male rats; experiment: In vivo nephrotoxicity in rats; settings: 40 mg/kg on days 1 and 8, assessed day 15, 40 mg/kg
Procedure: Purpose bred Wistar Han Crl:WI(Han) male rats obtained from Charles River Laboratories at 7 to 8 weeks of age were divided into groups of 4 (table 1, exp. A) or 8 (table 1, exp. B) based on body weight and acclimatized for at least 5 days before dosing. The animals were housed under standard environmental conditions ([…], relative humidity 50±20%, a light/dark cycle 12 h/12 h, pelleted food and water ad libitum), were offered enriched environment in an AAALAC accredited facility and were regularly and carefully monitored. All procedures were in accordance with the respective local regulations and according to the animal permissions granted by the Institutional Animal Care and Use Committee. Test compounds were formulated in isotonic sterile saline, sterile filtered (0.22 μm), and dosed at 40 mg/kg on days 1 and 8 (2.5 ml/kg) in the intrascapular region. Control group animals received saline as vehicle control. On day 15 animals were orally administered tap water (10 ml/kg), and urine was collected on ice for 6 hours in metabolic cages. […] On day 15 the rats were sacrificed by an intraperitoneal injection of pentobarbital and exsanguinated. Kidney cortex samples were collected and fixed by immersion in 10% neutral buffered formalin, embedded in paraffin, sectioned to 5 μm and stained with hematoxylin and eosin (H&). The H&E sections were then scanned at 20× magnification using an Aperio ScanScope AT™ (Leica Biosystems) scanner and pictures were then captured via ImageScope™ software from the scanned images. One or more of the following parameters were assessed kidney weight, serum creatinine, urine protein, KIM-1 protein in urine, KIM-1 mRNA, kidney degeneration/regeneration and relative tubulotoxicity grade.

[8] = PTEC-TERT1, 6 days, 10 μM oligonucleotide (Table 7)
[9] = PTEC-TERT1, 6 days, 30 μM oligonucleotide (Table 7)
[10] = PTEC-TERT1, Day 6, 10 μM (Table 4)
[11] = PTEC-TERT1, Day 6, 30 μM (Table 4)
[12] = PTEC-TERT1, Day 6, 100 μM (Table 4)
[13] = PTEC-TERT1, Day 3, 11 μM (Table 3)
[14] = PTEC-TERT1, Day 3, 33 μM (Table 3)
[15] = PTEC-TERT1, Day 3, 100 μM (Table 3)
[16] = PTEC-TERT1, Day 7, 11 μM (Table 3)
[17] = PTEC-TERT1, Day 7, 33 μM (Table 3)
[18] = PTEC-TERT1, Day 7, 100 μM (Table 3)
[19] = PTEC-TERT1, Day 10, 11 μM (Table 3)
[20] = PTEC-TERT1, Day 10, 33 μM (Table 3)
[21] = PTEC-TERT1, Day 10, 100 μM (Table 3)

| Substance | EGF (PTEC-TERT1 cells [1]; [8]) [% saline] | Toxicity grade (PTEC-TERT1 cells [1]; PTEC-TERT1, 6 days, 10 μM) | EGF (PTEC-TERT1 cells [1]; [9]) [% saline] | Toxicity grade (PTEC-TERT1 cells [1]; PTEC-TERT1, 6 days, 30 μM) | EGF (PTEC-TERT1 cells [1]; [10]) [% saline] | EGF (PTEC-TERT1 cells [1]; [11]) [% saline] | EGF (PTEC-TERT1 cells [1]; [12]) [% saline] | EGF ([2]; day 3, 10 μM) [% saline] | EGF ([2]; day 3, 100 μM) [% saline] | EGF (PTEC-TERT1 cells [1]; [13]) [% saline] | EGF (PTEC-TERT1 cells [1]; [14]) [% saline] | EGF (PTEC-TERT1 cells [1]; [15]) [% saline] | EGF (PTEC-TERT1 cells [1]; [16]) [% saline] | EGF (PTEC-TERT1 cells [1]; [17]) [% saline] | EGF (PTEC-TERT1 cells [1]; [18]) [% saline] | EGF (PTEC-TERT1 cells [1]; [19]) [% saline] | EGF (A549 cells [3]; 1 ng oligonucleotide) [% saline] | EGF (A549 cells [3]; 10 ng oligonucleotide) [% saline] | ATP (A549 cells [4]; 1 ng oligonucleotide) [% saline] | ATP (A549 cells [4]; 10 ng oligonucleotide) [% saline] | also measured |
| --- | --- | --- | --- | --- | --- | --- | --- | --- | --- | --- | --- | --- | --- | --- | --- | --- | --- | --- | --- | --- | --- |
| CACattccttgctCTG (CACATTCCTTGCTCTG; chemistry not given here) [Compound 10-1] | 305 | 11 | 1283 | 17 | 73 | 330 | 783 | 145 | 574 | – | – | – | – | – | – | – | – | – | – | – | – |
| CGTcagtatgcgAATc (CGTCAGTATGCGAATC; chemistry not given here) [Compound 1-1] | – | – | – | – | – | – | – | 123 | 159 | 145 | 214 | 137 | 94 | 122 | 135 | 32 | 69 | 75 | 89 | 100 | EGF (PTEC-TERT1 cells [1]; PTEC-TERT1, Day 3, 3 μM (Table 2)): 88 % saline; EGF (PTEC-TERT1 cells [1]; PTEC-TERT1, Day 3, 10 μM (Table 2)): 93 % saline; EGF (PTEC-TERT1 cells [1]; PTEC-TERT1, Day 3, 30 μM (Table 2)): 108 % saline; EGF (PTEC-TERT1 cells [1]; PTEC-TERT1, Day 3, 100 μM (Table 2)): 119 % saline; EGF (PTEC-TERT1 cells [1]; PTEC-TERT1, Day 6, 3 μM (Table 2)): 124 % saline; EGF (PTEC-TERT1 cells [1]; PTEC-TERT1, Day 6, 10 μM (Table 2)): 152 % saline; EGF (PTEC-TERT1 cells [1]; PTEC-TERT1, Day 6, 30 μM (Table 2)): 180 % saline; EGF (PTEC-TERT1 cells [1]; PTEC-TERT1, Day 6, 100 μM (Table 2)): 172 % saline; EGF (PTEC-TERT1 cells [1]; [20]): 41 % saline; EGF (PTEC-TERT1 cells [1]; [21]): 59 % saline; morphological changes (PTEC-TERT1 cells [5]): did not show any morphological changes; EGF ([6]; Day 3, 3 μM): 95 % saline; EGF ([6]; Day 3, 10 μM): 99 % saline; EGF ([6]; Day 3, 30 μM): 112 % saline; EGF ([6]; Day 3, 100 μM): 120 % saline; EGF ([6]; Day 6, 3 μM): 62 % saline; EGF ([6]; Day 6, 10 μM): 71 % saline; EGF ([6]; Day 6, 30 μM): 77 % saline; EGF ([6]; Day 6, 100 μM): 98 % saline |
| ACTgctttccactCTG (ACTGCTTTCCACTCTG; chemistry not given here) [Compound 8-1] | 8412 | 323 | 15126 | 208 | 1153 | 1359 | 1545 | – | – | – | – | – | – | – | – | – | 140 | 233 | 101 | 58 | – |
| AATgctacaaaaCCCA (antisense AATGCTACAAAACCCA; sugars from the 5' end l3 d9 l4, backbone and methylation of C not given here) [Compound 2-1] | – | – | – | – | – | – | – | 122 | 211 | 135 | 192 | 172 | 69 | 88 | 117 | 47 | 80 | 161 | 96 | 59 | EGF (PTEC-TERT1 cells [1]; [20]): 63 % saline; EGF (PTEC-TERT1 cells [1]; [21]): 154 % saline; PCSK9 mRNA (PCSK9 mRNA; PTEC-TERT1, EGF 0 ng/ml in medium): 1.73 % of saline; PCSK9 mRNA (PCSK9 mRNA; PTEC-TERT1, EGF 10 ng/ml in medium): 1.02 % of saline; In vivo nephrotoxicity / in vivo grade of toxicity [7]: low and Low |
